How the values were obtained:
A2A AdoR = molecular target: T1, A2A AdoR (Cavia porcellus, UniProt P46616); test: Guinea pig isolated perfused heart: coronary vasodilation (coronary conductance); conditions: guinea pig isolated perfused hearts; read-out: EC50 to cause coronary vasodilation
T1 construct: from tissue; host or cells: guinea pig isolated perfused heart
Method: (§1) Guinea pigs of either sex weighing 250-300 g were anesthetized with methoxyflurane and killed by cervical dislocation. The hearts were quickly removed and rinsed in ice-cold Krebs-Henseleit solution. The aorta was cannulated and the heart retrogradely perfused at a constant flow of 10 ml min^−1 with modified Krebs-Henseleit solution containing (mM): NaCL 117.9, KCl 4.8, CaCl2 2.5, MgSO4 1.18, KH2PO4 1.2, Na2EDTA 0.5, ascorbic acid 0.14, glucose 5.5, pyruvic acid (sodium salt) 2.0, and NaHCO3 25. The K—H solution was oxygenated with 95% oxygen and 5% CO2, pH 7.4, and temperature maintained at 36° C.
Coronary perfusion pressure was measured using a pressure transducer that was connected to the aortic cannula via a T-connector. Coronary perfusion pressure (in mmHg) was monitored throughout an experiment and recorded on a 4-channel Gould strip-chart recorder (Gould RS3400, Cleveland, Ohio, U.S.A.). Coronary conductance (in ml min^−1 mmHg^−1) was calculated as the ratio of coronary perfusion rate (10 ml min^−1) and perfusion pressure (mmHg).

A1 adenosine receptor [1] = molecular target: T2, A1 adenosine receptor (Mesocricetus auratus, UniProt A0A1U8BVR4); test: [35S]GTPγS binding assay, A1-agonist stimulated; format: biochemical, hamster; conditions: […], agonist stimulated [35S]GTPγS binding, CPA = 100%
T2 construct: endogenous in cells; host or cells: DDT1 (DDT1 MF-2) hamster vas deferens smooth muscle cells
T2 sequence (A0A1U8BVR4 1-326): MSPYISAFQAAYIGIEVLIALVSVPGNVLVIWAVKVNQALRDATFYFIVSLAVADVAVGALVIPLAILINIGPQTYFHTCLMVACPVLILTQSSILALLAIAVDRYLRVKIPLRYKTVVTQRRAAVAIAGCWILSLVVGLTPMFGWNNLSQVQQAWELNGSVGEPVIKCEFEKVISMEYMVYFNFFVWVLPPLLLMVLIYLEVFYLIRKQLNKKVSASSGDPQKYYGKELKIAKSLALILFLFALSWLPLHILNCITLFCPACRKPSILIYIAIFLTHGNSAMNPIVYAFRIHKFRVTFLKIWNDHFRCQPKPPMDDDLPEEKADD
Summary of the method: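 Membranes in 50 mM Tris-HCl pH 7.4, 5 mM MgCl2, 100 mM NaCl, 1 mM DTT used for A1-agonist-stimulated [35S]GTPγS binding, read by filtration. Nonspecific binding defined with 10 μM GTPγS. Saturation runs used 0.5 nM [35S]GTPγS with 0.5–1000 nM GTPγS.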

A1 adenosine receptor [2] = molecular target: T3, A1 adenosine receptor (Cavia porcellus, UniProt P47745); test: Guinea pig isolated perfused heart: S-H interval, heart rate, atrial MAP
T3 construct: The hearts were quickly removed and rinsed in ice-cold Krebs-Henseleit solution; from tissue; host or cells: guinea pig isolated perfused heart
T3 sequence (P47745 1-326): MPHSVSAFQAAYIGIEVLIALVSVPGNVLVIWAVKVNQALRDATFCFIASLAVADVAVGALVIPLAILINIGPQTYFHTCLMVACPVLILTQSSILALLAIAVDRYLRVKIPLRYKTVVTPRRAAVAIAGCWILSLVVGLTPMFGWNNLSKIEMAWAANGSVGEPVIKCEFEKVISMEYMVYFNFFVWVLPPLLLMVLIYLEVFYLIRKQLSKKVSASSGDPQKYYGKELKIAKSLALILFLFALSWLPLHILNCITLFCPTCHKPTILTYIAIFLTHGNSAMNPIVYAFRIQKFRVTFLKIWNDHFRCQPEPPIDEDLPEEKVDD
Method: as §1
Hearts were electrically paced at a cycle length of 290-300 ms (unless otherwise indicated) using a bipolar electrode placed on the right atrium or ventricle. The stimulator, an interval generator (Model 1830, WPI, Sarasota, Fla., U.S.A.) delivered stimuli through a stimulus isolation unit (Model 1880, WPI) as square wave pulses of 3 ms in duration and at least twice the threshold intensity. The stimulus-to-His bundle (S—H) interval was used as index of AV nodal conduction time and was measured on-line during constant atrial pacing from microcomputer with a DT-208 1A interface board (Axon Instruments, Burlingame, Calif., U.S.A.) In experiments to study the chronotropic effect (effect on heart rate) of A1 AdoR agonists, the hearts were allowed to beat spontaneously. An atrial electrogram was used to record the electrical activity of the atria and to measure the heart rate.
Monophasic action potentials (MAP) were recorded using a pressure contact silver-silver chloride electrode (Langendorf Probe, EP Technologies, Inc., Sunnyvale, Calif., U.S.A.) placed on the surface of the left atrium. […] Signals were considered adequate if they were stable for at least 5 min and the amplitudes of the MAPs exceeded 10 mV. The data were digitized at 2 kHz by a DT-2801A digitizing board (Data Translation, Marlboro, Mass., U.S.A.) and stored using the Snapshot data acquisition program (Snapshot Storage Scope, HEM Data Corp., Southfield, Mich., U.S.A.) for later analysis. The duration of the atrial monophasic action potential was measured at 90% repolarization (MAPD90), using the Snapshot program. After completion of dissection and instrumentation, the hearts were allowed to equilibrate for 30 min before the experiments were begun. Whenever the baseline and post-intervention (washout) values differed by more than 15% the data were discarded. Approximately 60-70% of the experiments conformed with this criteria.

T1 sequence (P46616 whole entry, the tested form may be a part): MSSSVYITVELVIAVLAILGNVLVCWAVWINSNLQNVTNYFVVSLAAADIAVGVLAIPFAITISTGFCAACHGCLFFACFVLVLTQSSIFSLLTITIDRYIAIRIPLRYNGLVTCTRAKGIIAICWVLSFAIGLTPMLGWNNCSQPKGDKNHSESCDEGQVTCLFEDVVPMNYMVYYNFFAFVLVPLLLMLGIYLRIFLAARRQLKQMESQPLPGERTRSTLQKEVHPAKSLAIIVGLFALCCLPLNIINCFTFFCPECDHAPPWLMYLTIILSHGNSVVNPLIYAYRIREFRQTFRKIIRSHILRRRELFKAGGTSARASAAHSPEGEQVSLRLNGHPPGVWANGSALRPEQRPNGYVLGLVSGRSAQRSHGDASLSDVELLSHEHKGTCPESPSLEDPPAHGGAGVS

CNC(=O)OC[C@H]1O[C@@H](n2cnc3c(N[C@@H]4CCOC4)ncnc32)[C@H](O)[C@@H]1O [Compound 6, (5-16[((3R)oxolan-3-yl)aminolpurin-9-yl)(3S,2R,4R,5R)-3,4dihydroxyoxolan-2yl)methoxyl-N-methylearboxamide]
EC50 (A2A AdoR): 31 ± 5.1 µM
Emax (A1 adenosine receptor [1]): 48%
agonist character at A1 AdoR (A1 adenosine receptor [2]): true partial A1 AdoR agonist
antagonism of S-H interval prolongation caused by full agonist CPA (A1 adenosine receptor [2]; Compound 6 2 and 10 μm, atrial cycle length 300 msec, FIG. 3): antagonizes the negative dromotropic effect
effect on atrial monophasic action potential (A1 adenosine receptor [2]; FIG. 1 panel B): no effect
effect on AV nodal conduction time (S-H interval) (A1 adenosine receptor [2]; FIG. 1 panel C): concentration-dependent and significant increase in AV nodal conduction time
second-degree AV block (A1 adenosine receptor [2]; FIG. 1 panel C): without causing second-degree AV block at any concentration tested
EC50 (A1 adenosine receptor [2]; guinea pig isolated perfused hearts, read-out: EC50 to prolong S-H interval (negative dromotropic effect)): 2.8 ± 1.3 µM
selectivity: S-H interval prolongation versus increase of coronary conductance (A1 adenosine receptor [2]; ratio of potencies): at least 10 fold
effect on heart rate (chronotropic) (A1 adenosine receptor [2]; spontaneously beating hearts, FIG. 1 panel A): did not slow heart rate
